Test results from patent US20230255969A1, “TARGETING IMMUNE P[…] BY HIGHLY PATHOGENIC CORONAVIRUSES” (priority 2020, published 2023).

Test system: bone marrow derived mast cells (BMMCs)
Type: cell-based, C57Bl/6 mouse

Structure (SMILES): O=C(O)c1cc(=O)c2c(OCC(O)COc3cccc4oc(C(=O)O)cc(=O)c34)cccc2o1 [cromolyn, 5-[3-(2-carboxy-4-oxochromen-5-yl)oxy-2-hydroxypropoxy]-4-oxochromene-2-carboxylic acid]
- Mast cell degranulation in response to SARS-CoV-2 Spike protein (percentage degranulation): reduced
